One assay deals with T1, EphB1 (Homo sapiens, UniProt P54762).
T1 sequence (P54762 1-984): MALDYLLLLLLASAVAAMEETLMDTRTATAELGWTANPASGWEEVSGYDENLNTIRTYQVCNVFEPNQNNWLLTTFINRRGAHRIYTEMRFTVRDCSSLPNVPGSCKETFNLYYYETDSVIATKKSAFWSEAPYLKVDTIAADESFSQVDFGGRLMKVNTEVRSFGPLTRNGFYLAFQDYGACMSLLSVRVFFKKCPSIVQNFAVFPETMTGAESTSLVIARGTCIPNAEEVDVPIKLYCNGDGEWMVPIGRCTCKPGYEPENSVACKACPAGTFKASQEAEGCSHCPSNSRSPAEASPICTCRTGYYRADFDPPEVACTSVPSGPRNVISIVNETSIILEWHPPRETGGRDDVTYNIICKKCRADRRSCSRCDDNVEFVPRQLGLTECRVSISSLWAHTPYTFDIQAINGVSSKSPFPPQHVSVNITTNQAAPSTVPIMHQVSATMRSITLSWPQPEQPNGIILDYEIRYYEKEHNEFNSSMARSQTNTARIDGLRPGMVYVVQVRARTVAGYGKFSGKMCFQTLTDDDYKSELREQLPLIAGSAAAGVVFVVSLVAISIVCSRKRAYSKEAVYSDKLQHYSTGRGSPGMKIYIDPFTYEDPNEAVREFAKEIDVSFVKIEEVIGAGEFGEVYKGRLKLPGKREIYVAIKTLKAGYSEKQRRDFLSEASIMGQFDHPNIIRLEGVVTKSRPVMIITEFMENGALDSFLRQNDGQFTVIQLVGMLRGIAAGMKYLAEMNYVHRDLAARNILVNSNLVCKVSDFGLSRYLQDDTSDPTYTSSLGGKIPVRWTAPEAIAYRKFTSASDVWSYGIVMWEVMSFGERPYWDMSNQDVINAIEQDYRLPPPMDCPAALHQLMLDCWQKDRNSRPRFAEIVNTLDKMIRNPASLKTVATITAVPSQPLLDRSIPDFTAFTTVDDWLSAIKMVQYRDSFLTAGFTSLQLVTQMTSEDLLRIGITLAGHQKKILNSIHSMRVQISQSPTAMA
The assay can be described thus: biochemical.

A further assay deals with T2, BRPF1 (Homo sapiens, UniProt P55201).
T2 sequence (P55201 1-1214): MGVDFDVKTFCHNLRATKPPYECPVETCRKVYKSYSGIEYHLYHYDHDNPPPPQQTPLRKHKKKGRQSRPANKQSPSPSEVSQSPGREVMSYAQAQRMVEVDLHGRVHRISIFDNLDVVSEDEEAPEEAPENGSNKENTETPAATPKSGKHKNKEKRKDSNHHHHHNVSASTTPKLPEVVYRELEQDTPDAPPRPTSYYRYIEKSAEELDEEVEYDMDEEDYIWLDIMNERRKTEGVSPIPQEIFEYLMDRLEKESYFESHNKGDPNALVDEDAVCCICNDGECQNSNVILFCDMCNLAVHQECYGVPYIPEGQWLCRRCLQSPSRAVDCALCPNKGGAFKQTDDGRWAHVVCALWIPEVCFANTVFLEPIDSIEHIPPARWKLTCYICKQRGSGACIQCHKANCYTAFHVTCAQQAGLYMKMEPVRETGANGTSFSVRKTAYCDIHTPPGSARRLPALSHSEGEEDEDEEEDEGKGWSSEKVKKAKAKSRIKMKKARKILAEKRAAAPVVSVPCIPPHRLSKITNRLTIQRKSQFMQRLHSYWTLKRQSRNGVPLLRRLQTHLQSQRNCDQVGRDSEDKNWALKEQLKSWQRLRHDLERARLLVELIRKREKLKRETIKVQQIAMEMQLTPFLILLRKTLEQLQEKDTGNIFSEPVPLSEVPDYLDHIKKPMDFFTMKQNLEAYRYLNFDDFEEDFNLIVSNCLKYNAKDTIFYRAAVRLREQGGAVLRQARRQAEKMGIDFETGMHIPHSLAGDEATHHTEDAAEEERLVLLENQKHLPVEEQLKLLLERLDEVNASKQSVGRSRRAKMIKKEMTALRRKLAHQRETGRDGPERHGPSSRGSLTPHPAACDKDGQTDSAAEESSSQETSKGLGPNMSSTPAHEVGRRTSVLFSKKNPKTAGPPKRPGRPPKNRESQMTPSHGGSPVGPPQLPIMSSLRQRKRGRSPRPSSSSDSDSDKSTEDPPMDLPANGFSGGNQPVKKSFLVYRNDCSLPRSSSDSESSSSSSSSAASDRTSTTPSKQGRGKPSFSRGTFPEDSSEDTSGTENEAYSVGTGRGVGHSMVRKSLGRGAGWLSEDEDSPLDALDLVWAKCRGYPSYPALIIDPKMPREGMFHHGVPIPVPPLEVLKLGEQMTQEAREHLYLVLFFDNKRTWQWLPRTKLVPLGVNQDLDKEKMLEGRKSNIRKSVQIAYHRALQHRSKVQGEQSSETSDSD
As to the kind of experiment: biochemical.

Where two headings read alike, the source gives them in different places.

As for `CNc1ncc2cc(-c3cc(C(F)(F)F)ccc3Cl)c(=O)n(CCCCN)c2n1` [compound 9, 8-(4-Aminobutyl)-6-(2-chloro-5-(trifluoromethyl)phenyl)-2-(methylamino)pyrido[2,3-d]pyrimidin-7(8H)-one], the ΔTm at 10 µM at EphB1 (read-out: dTm 9) is 3.3 °C; at BRPF1 (read-out: dTm 9) it was -0.4 °C.
For `CNc1ncc2cc(-c3cc(Cl)ccc3Cl)c(=O)n(CCCCN)c2n1` [compound 8, 8-(4-Aminobutyl)-6-(2,5-dichlorophenyl)-2-(methylamino)pyrido[2,3-d]pyrimidin-7(8H)-one], the ΔTm at 10 µM on EphB1 (read-out: dTm 8) was 5.3 °C; at BRPF1 (read-out: dTm 8), -0.5 °C.
For the compound `CNc1ncc2cc(-c3cc(Br)ccc3Br)c(=O)n(CCCCN)c2n1` [compound 11, 8-(4-Aminobutyl)-6-(2,5-dibromophenyl)-2-(methylamino)pyrido[2,3-d]pyrimidin-7(8H)-one], the ΔTm at 10 µM is 4.7 °C at EphB1 (read-out: dTm 11) and -0.7 °C on BRPF1 (read-out: dTm 11).
For `CNc1ncc2cc(-c3cc(F)c(-c4cccc(C)n4)cc3F)c(=O)n(CCCCN)c2n1` [compound 12, 8-(4-Aminobutyl)-6-(2,5-difluoro-4-(6-methylpyridin-2-yl)phenyl)-2-(methylamino)pyrido[2,3-d]pyrimidin-7(8H)-one], the results for the ΔTm at 10 µM on EphB1 (read-out: dTm 12) and on BRPF1 (read-out: dTm 12) were 3.5 °C and -1.5 °C, respectively.
`CNc1ncc2cc(-c3cc(Cl)ccc3Br)c(=O)n(CCCCN)c2n1` [compound 10, 8-(4-Aminobutyl)-6-(2-bromo-5-chlorophenyl)-2-(methylamino)pyrido[2,3-d]pyrimidin-7(8H)-one]: the ΔTm at 10 µM was 5.5 °C on EphB1 (read-out: dTm 10) and -0.3 °C on BRPF1 (read-out: dTm 10).

The values are drawn from publication doi:10.1101/2023.03.24.534094v2 (biorxiv, 2023).
